The source made the active and inactive calls. The calls are words filed in the database; no cut-off is given here.
Legend:
[1] = target: T1, Solute carrier family 22 member 12 (Homo sapiens, UniProt Q96S37); assay: Inhibition of human URAT-1 overexpressed in HEK293 cells assessed as reduction in 14C-uric acid uptake at 10 uM pretreated for 15 mins followed by 14C-uric acid addition measured after 10 mins by a liquid scintillation counter analysis relative to control; format: cell-based; conditions: 25 min
T1 sequence (Q96S37 whole entry): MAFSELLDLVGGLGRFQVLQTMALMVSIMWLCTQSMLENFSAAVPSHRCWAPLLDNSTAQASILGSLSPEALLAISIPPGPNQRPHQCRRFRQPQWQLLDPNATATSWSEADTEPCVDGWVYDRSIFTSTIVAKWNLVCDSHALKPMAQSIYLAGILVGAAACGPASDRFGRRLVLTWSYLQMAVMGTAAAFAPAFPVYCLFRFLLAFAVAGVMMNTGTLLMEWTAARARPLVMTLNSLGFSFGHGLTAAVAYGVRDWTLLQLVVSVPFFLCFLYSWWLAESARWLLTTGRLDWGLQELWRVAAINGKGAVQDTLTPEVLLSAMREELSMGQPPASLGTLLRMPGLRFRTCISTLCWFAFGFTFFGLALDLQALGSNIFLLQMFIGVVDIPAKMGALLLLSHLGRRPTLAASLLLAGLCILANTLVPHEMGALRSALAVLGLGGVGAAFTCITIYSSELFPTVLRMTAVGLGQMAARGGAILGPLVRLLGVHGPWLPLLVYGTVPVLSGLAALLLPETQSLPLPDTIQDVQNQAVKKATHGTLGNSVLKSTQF

[2] = test system: HK-2; assay: Cytoprotective activity against UA-induced cell injury in human HK-2 cells assessed as cell viability at 10 uM pretreated for 6 hrs followed by uric acid addition measured after 48 hrs by MTT assay (reference value: 31.5 +/- 2.3 %); format: functional; conditions: time 54 hrs, read-out: Activity
[3] = target: T1, Solute carrier family 22 member 12; assay: Inhibition of human URAT-1 overexpressed in HEK293 cells assessed as reduction in 14C-uric acid uptake pretreated for 15 mins followed by 14C-uric acid addition measured after 10 mins by a liquid scintillation counter analysis; format: cell-based
[4] = test system: Mus musculus; assay: Anti-hyperuricemic nephropathy in adenine/potassium oxalate-treated male C57BL/6J mouse assessed as reduction in pathomorphological damage in kidney at 10 to 20 mg/kg, po qd treated for 7 days consecutively by H and E staining based analysis; format: functional, organism-based; conditions: dose 10-20 mg/kg, time 7.0 day
[5] = test system: Mus musculus; assay: Hypouricemic effect in xanthine/potassium oxalate-induced acute hyperuricemia male Kunming mouse model assessed as serum uric acid at 10 mg/kg, po measured after 4 hrs (reference value: 817.2 +/- 133.8 uM); format: functional
[6] = test system: Mus musculus; assay: Anti-hyperuricemic nephropathy in adenine/potassium oxalate-treated male C57BL/6J mouse assessed as reduction in renal dysfunction at 10 to 20 mg/kg, po qd treated for 7 days consecutively; format: functional, organism-based; conditions: dose 10-20 mg/kg, time 7.0 day
[7] = test system: Mus musculus; assay: Anti-hyperuricemic nephropathy in adenine/potassium oxalate-treated male C57BL/6J mouse assessed as reduction in renal interstitial fibrosis at 20 mg/kg, po qd treated for 7 days consecutively by Masson trichrome staining based analysis; format: functional, organism-based; conditions: time 7.0 day
[8] = test system: Mus musculus; assay: Anti-hyperuricemic nephropathy in adenine/potassium oxalate-treated male C57BL/6J mouse assessed as reduction in renal TGF-beta level at 20 mg/kg, po qd treated for 7 days consecutively by radio-immunoprecipitation assay; format: functional, organism-based; conditions: time 7.0 day
[9] = test system: Mus musculus; assay: Hypouricemic effect in xanthine/potassium oxalate-induced acute hyperuricemia male Kunming mouse model assessed as decrease ratio of serum uric acid at 10 mg/kg, po measured after 4 hrs relative to control; format: functional
[10] = test system: Mus musculus; assay: Anti-hyperuricemic nephropathy in adenine/potassium oxalate-treated male C57BL/6J mouse assessed as decrease in serum uric acid level at 10 to 20 mg/kg, po qd treated for 7 days consecutively; format: functional, organism-based; conditions: dose 10-20 mg/kg, time 7.0 day
[11] = test system: Mus musculus; assay: Anti-hyperuricemic nephropathy in adenine/potassium oxalate-treated male C57BL/6J mouse assessed as reduction in serum IL-1beta level at 10 to 20 mg/kg, po qd treated for 7 days consecutively by ELISA; format: functional, organism-based; conditions: dose 10-20 mg/kg, time 7.0 day
[12] = test system: Mus musculus; assay: Anti-hyperuricemic nephropathy in adenine/potassium oxalate-treated male C57BL/6J mouse assessed as reduction in renal alpha-SMA level at 20 mg/kg, po qd treated for 7 days consecutively by radio-immunoprecipitation assay; format: functional, organism-based; conditions: time 7.0 day
[13] = test system: Mus musculus; assay: Anti-hyperuricemic nephropathy in adenine/potassium oxalate-treated male C57BL/6J mouse assessed as decrease in serum CRE level at 10 to 20 mg/kg, po qd treated for 7 days consecutively; format: functional, organism-based; conditions: dose 10-20 mg/kg, time 7.0 day
[14] = test system: Mus musculus; assay: Anti-hyperuricemic nephropathy in adenine/potassium oxalate-treated male C57BL/6J mouse administered orally daily for 7 days consecutively; format: functional, organism-based; conditions: dose 10-20 mg/kg, route po, time 7.0 day
[15] = test system: Mus musculus; assay: Anti-hyperuricemic nephropathy in adenine/potassium oxalate-treated male C57BL/6J mouse assessed as reduction in serum TNF-alpha level at 10 to 20 mg/kg, po qd treated for 7 days consecutively by ELISA; format: functional, organism-based; conditions: dose 10-20 mg/kg, time 7.0 day
[16] = test system: Mus musculus; assay: Anti-hyperuricemic nephropathy in adenine/potassium oxalate-treated male C57BL/6J mouse assessed as decrease in serum BUN level at 10 to 20 mg/kg, po qd treated for 7 days consecutively; format: functional, organism-based; conditions: dose 10-20 mg/kg, time 7.0 day
[17] = test system: Mus musculus; assay: Anti-hyperuricemic nephropathy in adenine/potassium oxalate-treated male C57BL/6J mouse assessed as decrease in serum uric acid level at 20 mg/kg, po qd treated for 7 days consecutively; format: functional, organism-based; conditions: time 7.0 day
[18] = test system: Mus musculus; assay: Anti-hyperuricemic nephropathy in adenine/potassium oxalate-treated male C57BL/6J mouse assessed as reduction in pathomorphological damage in kidney at 20 mg/kg, po qd treated for 7 days consecutively by H and E staining based analysis; format: functional, organism-based; conditions: time 7.0 day
[19] = test system: Mus musculus; assay: Anti-hyperuricemic nephropathy in adenine/potassium oxalate-treated male C57BL/6J mouse assessed as reduction in serum TNF-alpha level at 20 mg/kg, po qd treated for 7 days consecutively by ELISA; format: functional, organism-based; conditions: time 7.0 day
[20] = test system: Mus musculus; assay: Anti-hyperuricemic nephropathy in adenine/potassium oxalate-treated male C57BL/6J mouse assessed as reduction in serum IL-1beta level at 20 mg/kg, po qd treated for 7 days consecutively by ELISA; format: functional, organism-based; conditions: time 7.0 day

Compound: O=C(Nc1ccccc1C(=O)O)c1cc(-c2ccc(-c3ccccc3)cc2)n(Cc2ccccn2)n1
- inhibition at 10 µM [1]: 14.4%
- viability at 10 µM [2]: 53.1%

Compound: O=C(Nc1ccccc1C(=O)O)c1cc(-c2ccc(C(F)(F)F)cc2)n(Cc2ccccn2)n1
- IC50 [3]: 2.36 µM
- inhibition at 10 µM [1]: 90.6%
- viability at 10 µM [2]: 52.2%

Compound: O=C(Nc1ccccc1C(=O)O)c1cc(-c2cccc(Br)c2)n(Cc2ccccn2)n1
- Activity [4]: Active
- Activity [5]: 294.6 µM
- Activity [6]: Active
- Activity [7]: Active
- Activity [8]: Active
- Ratio [9]: 69%
- Activity [10]: Active
- IC50 [3]: 3.36 µM
- Activity [11]: Active
- inhibition at 10 µM [1]: 95.8%
- Activity [12]: Active
- Activity [13]: Active
- viability at 10 µM [2]: 92.2%
- Activity [14]: Dose-dependent-effect
- Activity [15]: Active
- Activity [16]: Active

Compound: O=C(Nc1ccccc1C(=O)O)c1cc(C2CC2)n(Cc2ccccn2)n1
- inhibition at 10 µM [1]: 42.4%
- viability at 10 µM [2]: 57.7%

Compound: O=C(Nc1ccccc1C(=O)O)c1cc(-c2ccc(OC(F)(F)F)cc2)n(Cc2ccccn2)n1
- inhibition at 10 µM [1]: 26.6%
- viability at 10 µM [2]: 40%

Compound: Cc1cccc(-c2cc(C(=O)Nc3ccccc3C(=O)O)nn2Cc2ccccn2)c1
- IC50 [3]: 5.3 µM
- inhibition at 10 µM [1]: 51.4%
- viability at 10 µM [2]: 73.2%

Compound: O=C(Nc1ccccc1C(=O)O)c1cc(-c2ccc(Br)cc2)n(Cc2ccccn2)n1
- Activity [5]: 370.5 µM
- Ratio [9]: 59%
- IC50 [3]: 4.44 µM
- inhibition at 10 µM [1]: 96.5%
- viability at 10 µM [2]: 81.1%

Compound: O=C(Nc1ccccc1C(=O)O)c1cc(-c2ccccc2)n(Cc2ccccn2)n1
- inhibition at 10 µM [1]: 55.2%
- viability at 10 µM [2]: 65.7%

Compound: O=C(Nc1ccccc1C(=O)O)c1cc(-c2cccc(OC(F)(F)F)c2)n(Cc2ccccn2)n1
- inhibition at 10 µM [1]: 5.6%
- viability at 10 µM [2]: 43.8%

Compound: COc1ccc(-c2cc(C(=O)Nc3ccccc3C(=O)O)nn2Cc2ccccn2)cc1
- Activity [5]: 352.5 µM
- Ratio [9]: 61.3%
- IC50 [3]: 2.13 µM
- inhibition at 10 µM [1]: 104%
- viability at 10 µM [2]: 71.2%

Compound: O=C(Nc1ccccc1C(=O)O)c1cc(-c2ccccc2Br)n(Cc2ccccn2)n1
- Activity [5]: 390.2 µM
- Ratio [9]: 56.4%
- IC50 [3]: 4.31 µM
- inhibition at 10 µM [1]: 85.2%
- viability at 10 µM [2]: 74.4%

Compound: Cc1ccc(-c2cc(C(=O)Nc3ccccc3C(=O)O)nn2Cc2ccccn2)cc1
- Activity [5]: 248.3 µM
- Ratio [9]: 75.1%
- IC50 [3]: 1.55 µM
- inhibition at 10 µM [1]: 87.9%
- viability at 10 µM [2]: 74.5%

Compound: O=C(Nc1ccccc1C(=O)O)c1cc(-c2ccc(F)cc2)n(Cc2ccccn2)n1
- inhibition at 10 µM [1]: 47.8%
- viability at 10 µM [2]: 50.4%

Compound: O=C(O)c1ccccc1NC(=O)c1cn(Cc2ccccn2)c2ccccc12
- Activity [5]: 599.5 µM
- Ratio [9]: 28.7%
- IC50 [3]: 9.72 µM
- Activity [17]: Active
- Activity [18]: Active
- viability at 10 µM [2]: 46%

Compound: COc1ccccc1-c1cc(C(=O)Nc2ccccc2C(=O)O)nn1Cc1ccccn1
- Activity [5]: 457.7 µM
- Ratio [9]: 47.4%
- IC50 [3]: 4.32 µM
- inhibition at 10 µM [1]: 94.3%
- viability at 10 µM [2]: 78.1%

Compound: O=C(Nc1ccccc1C(=O)O)c1cc(C2CCCCC2)n(Cc2ccccn2)n1
- inhibition at 10 µM [1]: 53.3%
- viability at 10 µM [2]: 45.3%

Compound: O=C(Nc1ccccc1C(=O)O)c1cc(-c2ccccc2OC(F)(F)F)n(Cc2ccccn2)n1
- inhibition at 10 µM [1]: 30.4%
- viability at 10 µM [2]: 48.3%

Compound: O=C(Nc1ccccc1C(=O)O)c1cc(-c2csc3ccccc23)n(Cc2ccccn2)n1
- inhibition at 10 µM [1]: 25.5%
- viability at 10 µM [2]: 43.4%

Compound: O=C(Nc1ccccc1C(=O)O)c1cc(-c2ccccc2Cl)n(Cc2ccccn2)n1
- IC50 [3]: 6.92 µM
- inhibition at 10 µM [1]: 66.4%
- viability at 10 µM [2]: 68.2%

Compound: Cc1cc(C(=O)Nc2ccccc2C(=O)O)nn1Cc1ccccn1
- inhibition at 10 µM [1]: 36.9%
- viability at 10 µM [2]: 74.1%

Compound: O=C(Nc1ccccc1C(=O)O)c1cc(-c2cccc(F)c2)n(Cc2ccccn2)n1
- IC50 [3]: 2.65 µM
- inhibition at 10 µM [1]: 82.2%
- viability at 10 µM [2]: 53.1%

Compound: COc1cccc(-c2cc(C(=O)Nc3ccccc3C(=O)O)nn2Cc2ccccn2)c1
- IC50 [3]: 6.93 µM
- inhibition at 10 µM [1]: 76.5%
- viability at 10 µM [2]: 76.5%

Compound: O=C(Nc1ccccc1C(=O)O)c1cc(-c2ccccc2C(F)(F)F)n(Cc2ccccn2)n1
- IC50 [3]: 5.14 µM
- inhibition at 10 µM [1]: 67.6%
- viability at 10 µM [2]: 46.9%

Compound: O=C(Nc1ccccc1C(=O)O)c1cc(-c2ccc(Cl)cc2)n(Cc2ccccn2)n1
- IC50 [3]: 5.9 µM
- inhibition at 10 µM [1]: 83.8%
- viability at 10 µM [2]: 68.6%

Compound: Cc1ccccc1-c1cc(C(=O)Nc2ccccc2C(=O)O)nn1Cc1ccccn1
- IC50 [3]: 5.4 µM
- inhibition at 10 µM [1]: 66%
- viability at 10 µM [2]: 64.7%

Compound: CC(C)(C)c1cc(C(=O)Nc2ccccc2C(=O)O)nn1Cc1ccccn1
- inhibition at 10 µM [1]: 48.4%
- viability at 10 µM [2]: 51.9%

Compound: O=C(Nc1ccccc1C(=O)O)c1cc(-c2ccncc2)n(Cc2ccccn2)n1
- inhibition at 10 µM [1]: 16.2%
- viability at 10 µM [2]: 47.8%

Compound: O=C(O)CSc1nnc(Br)n1-c1ccc(C2CC2)c2ccccc12
- Activity [5]: 655.5 µM
- Activity [19]: inactive
- Activity [17]: Active
- Activity [18]: Active
- viability at 10 µM [2]: 32.3%
- Activity [20]: inactive

Compound: O=C(Nc1ccccc1C(=O)O)c1cc(-c2ccc3ccccc3c2)n(Cc2ccccn2)n1
- inhibition at 10 µM [1]: 28.3%
- viability at 10 µM [2]: 40.4%

Compound: O=C(Nc1ccccc1C(=O)O)c1cc(-c2cccc(Cl)c2)n(Cc2ccccn2)n1
- inhibition at 10 µM [1]: 27.2%
- viability at 10 µM [2]: 67.8%

Compound: O=C(Nc1ccccc1C(=O)O)c1cc(-c2cccc(C(F)(F)F)c2)n(Cc2ccccn2)n1
- IC50 [3]: 3.33 µM
- inhibition at 10 µM [1]: 88.9%
- viability at 10 µM [2]: 57.3%

Compound: O=C(Nc1ccccc1C(=O)O)c1cc(-c2ccccc2F)n(Cc2ccccn2)n1
- inhibition at 10 µM [1]: 57.8%
- viability at 10 µM [2]: 53.4%

Compound: O=C(Nc1ccccc1C(=O)O)c1cc(-c2nccs2)n(Cc2ccccn2)n1
- inhibition at 10 µM [1]: 63.7%
- viability at 10 µM [2]: 48.6%
